# Reference: US6635030B1 (B.H.B. LLC, priority 1999, dated 2003)
# Experiment: Empiric porcine aortic contrast enhancement, dynamic CT after i.v. contrast injection
# Type: in vivo, pig
# Description: In order to test the mathematical solutions, a porcine study was conducted. All animal care and procedures performed were approved by the Institutional Animal Study Committee. […] Each session was separated by at least two days. Two pigs had all their sessions within a week, while the other two pigs had their first two and last sessions delays 4-5 weeks, which results in an increase in their weight to 35-40 kg in their last session. In each session, the pig was anesthetized, intubated, and underwent scanning for three or four sets of images obtained in random order. During scanning, each pig was ventilated with oxygen and low tidal volume to minimize breathing motion artifact. […] Each set of scans were 45-60 minutes apart to minimize the effect of prior contrast administration. All CT scanning was performed with a Somatom Plus-S scanner (Siemens Medical Systems, […].) using a one-second scanning time and a one-second interscan delay. Three types of injection schemes were tested: uniphasic, biphasic, and multiphasic. Biphasic injections were performed by a prior art power injector which was used in routine clinical CT scanning while uniphasic and multiphasic injections were conducted with a power injector which was invented for achieving the required protocols. This power injector was capable of delivering contrast medium in various uniphasic or multiphasic injection algorithms, as is explained in greater detail below. The multiphasic injection rate is determined by an initial injection rate and an exponential decay coefficient, as shown in FIG. 3. […] Most injections were performed with the initial injection rate of 2 mL/s. […] Three differential exponential decay coefficients (0.007, 0.017, 0.026) were tested. […] These were the three smallest discrete increments allowed in the prototype of the inventive power injector. Decay coefficient higher than 0.03 was not used because it was evident that a further increase in the coefficient would deviate further away from uniform vascular enhancements. A uniphasic injection was determined as being equivalent to a zero exponential decay coefficient where the injection rate remains constant at an initial injection rate throughout the injection duration. […] Approximately half of the total contrast volume was injected in each phase of the biphasic injections. […] Attenuation values of the aorta were measured from post-contrast scans (at the same level as the pre-contrast scans) using a circular region of interest (ROI) at the center of the aorta. Contrast enhancement was calculated as the absolute different in attenuation value between the pre- and post-contrast scans. […] Means and standard deviations were also computed. The results are now explained.
# [1] = 25 kg pig, 50 mL of 282 mgI/mL contrast medium, uniphasic 2 mL/sec
# [2] = four pigs, 50 mL, 2 mL/s initial injection rate, decay constant 0.017
# [3] = four pigs, 70 mL, 2 mL/s initial injection rate, decay constant 0.017
smiles,measurement,setting,value
"CNC(=O)c1c(I)c(NC(C)=O)c(I)c(C(=O)O)c1I.CNC[C@H](O)[C@@H](O)[C@H](O)[C@H](O)CO [contrast medium, iothalmate meglumine]",magnitude of the peak aortic enhancement (empiric),[1],250 HU
same,time to the peak aortic enhancement (empiric),[1],26 s
same,"increase of duration of enhancement within 90% of the peak (90%DCE), multiphasic vs uniphasic injection, mean",[2],81%
same,"reduction of peak aortic enhancement (PA), multiphasic vs uniphasic injection, mean",[2],19%
same,"decrease of peak aortic enhancement (PA), multiphasic vs uniphasic injection",[3],18%
same,"increase of duration of enhancement within 90% of the peak (90%DCE), multiphasic vs uniphasic injection",[3],94%
